{"source": "patent US20100273769A1", "about": "“COMPOSITION AND METHOD FOR THE TREATMENT OF PARKINSON'S DISEASE” (priority 2009, published 2010)", "key": {"[1]": {"details": "rodents, in vivo"}, "G2019S mutant LRRK2": {"target": "T1, G2019S mutant LRRK2 (Homo sapiens, UniProt Q5S007, G2019S)", "T1 construct": "of the mutant aa1326-2527 kinase fragment are used in the assays; GST; made in house", "T1 sequence (Q5S007 1326-2527 G2019S)": "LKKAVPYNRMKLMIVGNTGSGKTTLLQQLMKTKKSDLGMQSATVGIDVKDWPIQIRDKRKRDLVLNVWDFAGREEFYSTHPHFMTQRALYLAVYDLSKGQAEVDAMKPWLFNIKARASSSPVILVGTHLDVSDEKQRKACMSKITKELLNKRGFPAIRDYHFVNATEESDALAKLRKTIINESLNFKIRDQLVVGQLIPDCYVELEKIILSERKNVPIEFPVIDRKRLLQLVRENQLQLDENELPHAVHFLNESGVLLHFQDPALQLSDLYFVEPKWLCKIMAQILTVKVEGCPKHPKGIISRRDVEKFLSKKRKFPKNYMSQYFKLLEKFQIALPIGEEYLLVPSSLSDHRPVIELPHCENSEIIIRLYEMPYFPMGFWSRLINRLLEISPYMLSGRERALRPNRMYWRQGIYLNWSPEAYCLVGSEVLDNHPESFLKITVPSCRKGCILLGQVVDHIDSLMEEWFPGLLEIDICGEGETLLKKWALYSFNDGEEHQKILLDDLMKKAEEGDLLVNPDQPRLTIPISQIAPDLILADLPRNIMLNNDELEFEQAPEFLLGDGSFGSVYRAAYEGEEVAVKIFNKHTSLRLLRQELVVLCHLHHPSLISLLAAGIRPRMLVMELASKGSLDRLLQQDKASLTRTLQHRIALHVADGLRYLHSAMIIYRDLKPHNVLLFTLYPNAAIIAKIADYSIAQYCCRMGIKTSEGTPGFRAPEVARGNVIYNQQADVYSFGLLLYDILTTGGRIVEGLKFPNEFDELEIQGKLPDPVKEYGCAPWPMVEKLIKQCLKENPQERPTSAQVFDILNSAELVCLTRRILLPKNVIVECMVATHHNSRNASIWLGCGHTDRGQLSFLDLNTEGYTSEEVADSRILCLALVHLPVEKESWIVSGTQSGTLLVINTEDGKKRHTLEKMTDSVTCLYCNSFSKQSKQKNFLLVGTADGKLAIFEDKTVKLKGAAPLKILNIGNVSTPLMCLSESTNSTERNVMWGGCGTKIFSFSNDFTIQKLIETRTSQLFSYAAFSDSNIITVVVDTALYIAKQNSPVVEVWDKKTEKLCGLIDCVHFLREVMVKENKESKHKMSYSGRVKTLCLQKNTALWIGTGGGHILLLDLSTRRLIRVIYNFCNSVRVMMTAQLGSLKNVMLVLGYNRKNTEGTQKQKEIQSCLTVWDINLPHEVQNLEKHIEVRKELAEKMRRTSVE", "experiment": "Adapta assay, inhibition of G2019S mutant LRRK2 kinase fragment", "assay_type": "biochemical", "details": "100 μM ATP, FIG. 3B", "method": "Duplicate assay mixtures are set up each in a 10 μL volume containing 17 ng (8 nM) of human LRRK2 protein fragment encompassing amino acids 1326 to 2527, obtained as a recombinant GST fusion protein [according to Jaleel et al., Biochem. J. 405, 307-317 (2007)], 200 μM LRRKtide ([…]peptide), 25 mM Tris, pH 8.2, 5 mM MgCl2, 0.5 mM EGTA, 100 μM ATP, 0.005% Brij-35, 1% DMSO, and compound 3 in a series of concentrations (OnM, 0.1 nM, 0.3 nM, 1 nM, 3 nM, 10 nM, 30 nM, 100 nM, 300 nM, 1000 nM). After incubation for 1 hr at ambient temperature, 5 μL of the Adapta® Assay Detection Mix (Invitrogen) is added, containing 30 mM EDTA to stop the kinase reaction, 30 nM of the Eu-labelled anti-ADP antibody, and the AlexaFluor°-ADP conjugate. […]\nThe assays conducted in a 384 well microplate are then read out in a fluorescence microplate reader to establish the ratio of emissions at 665 nm (ADP-tracer) and at 615 nm (Eu-antibody) as a measure of ADP concentration by virtue of Fluorescence Resonance Energy Transfer (FRET). The conversion in % of ATP into ADP by the kinase reaction in each well is determined from the ADP/ATP standard curve, and means are formed from each duplicate assay well. […]\nInhibition is determined in the same way as in example 2, except that due to the higher specific activity […] of the mutant aa1326-2527 kinase fragment are used in the assays"}}, "data": [{"smiles": "CNC(=O)[C@@]1(N)CC2OC1(C)n1c3ccccc3c3c4c(c5c6ccccc6n2c5c31)C(=O)NC4", "note": "(some centres unmarked) [Compound 3]", "values": [{"measurement": "Plasma concentration sustained without detectable toxicity", "setting": "[1]", "result": "600 to 800", "unit": "nM"}, {"measurement": "IC50 relative to nominal kinase concentration, G2019S LRRK2", "setting": "G2019S mutant LRRK2", "result": "substantially below the nominal concentration of the kinase itself"}]}]}
